biological target: T1, h5-HT4b (Homo sapiens, UniProt Q13639); experiment: 5HT4 antagonism: [3H]GR113808 binding to membranes of h5-HT4b-HEK 293 clone 9 cells; conditions: displacement of [3H]GR113808 0.1 nM, h5-HT4b-HEK 293 membranes, 30 min at 25° C.; read-out: pIC50 (5HT4 antagonistic data) (converted)
T1 construct: expressed in transfected cells; host or cells: HEK 293 (clone 9), membrane preparation
Method: h5-HT4b-HEK 293 clone 9 cells were cultured in 150 mm Petri dishes and washed twice with cold PBS. The cells were then scraped from the plates and suspended in 50 mM Tris-HCl buffer, pH 7.4 and harvested by centrifugation at 23,500 rpm for 10 minutes. The pellet was resuspended in 5 mM Tris-HCl, pH 7.4 and homogenized with an Ultra Turrax homogenizer. The membranes were collected by centrifugation at 30,000 rpm for 20 min, resuspended in 50 mM Tris-HCl pH 7.4 and stored at −80° C. For the experiment, assay mixtures (0.5 ml) contained 50 μl of the tritiated ligand (5-HT4 antagonist [^3H]GR113808 0.1 nM) and 0.4 ml membrane preparation (15 μg protein/ml). 50 μl of 10% DMSO was added for total binding. 50 μl of 1 μM of (+)-trans-(1-butyl-3-hydroxy-4-piperidinyl)methyl 8-amino-7-chloro-2,3-dihydro-1,4-benzodioxin-5-carboxylate (a proprietary 5HT4 agonist of Janssen Pharmaceutica) was added for determination of non-specific binding.
The [^3H]GR113808 assay buffer was 50 mM HEPES-NaOH, pH 7.4. The mixtures were incubated for 30 min at 25° C. The incubation was terminated by filtration over a Unifilter 96 GF/B presoaked in 0.1% polyethylenimine, followed by six washing steps with 50 mM HEPES-NaOH, pH 7.4.

T1 sequence (Q13639 whole entry): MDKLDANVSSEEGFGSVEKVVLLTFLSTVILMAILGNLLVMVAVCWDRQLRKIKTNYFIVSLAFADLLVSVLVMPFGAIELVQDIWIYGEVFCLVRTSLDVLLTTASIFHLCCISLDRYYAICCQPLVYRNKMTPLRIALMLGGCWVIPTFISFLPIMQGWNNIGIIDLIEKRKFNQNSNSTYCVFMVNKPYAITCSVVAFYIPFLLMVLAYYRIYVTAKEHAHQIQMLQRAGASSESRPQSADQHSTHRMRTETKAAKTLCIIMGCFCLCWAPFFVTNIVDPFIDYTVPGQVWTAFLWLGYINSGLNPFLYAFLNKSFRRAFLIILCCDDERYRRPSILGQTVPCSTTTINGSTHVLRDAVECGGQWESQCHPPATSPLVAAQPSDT

Compound	IC50
Nc1cc2c(c(C(=O)NC[C@@H]3CCN(CCCOC4CCCCC4)C[C@H]3O)c1)OCCO2 [compound 85]	6.31 nM
Nc1cc2c(c(C(=O)NC[C@@H]3CCN(CCOCCO)C[C@H]3O)c1)OCCO2 [compound 86]	132 nM
COc1cc2c(c(C(=O)NC[C@@H]3CCNC[C@H]3O)c1)OCCCO2 [compound 88]	257 nM
CNCCCCN1CC[C@@H](CNC(=O)c2cc(N)c(Cl)c3c2OCCO3)[C@H](O)C1 [compound 89]	30.9 nM
CNCCCCN1CC[C@@H](CNC(=O)c2cc(NC)cc3c2OCCO3)[C@H](O)C1 [compound 90]	34.7 nM
CNCCCCN1CC[C@@H](CNC(=O)c2cc(NC)cc3c2OCCCO3)[C@H](O)C1 [compound 91]	229 nM
Cc1nccnc1NCCN1CC[C@@H](CNC(=O)c2cc(N)c(Cl)c3c2OCCCO3)[C@H](O)C1 [compound 92]	12 nM
CC(C)OCCCN1CC[C@@H](CNC(=O)c2cc(N)c(Cl)c3c2OCCO3)[C@H](O)C1 [compound 93]	17 nM
CNCCCCN1CC[C@@H](CNC(=O)c2cc(N)c(Cl)c3c2OCCCO3)[C@H](O)C1 [compound 94]	34.7 nM
CNc1cc2c(c(C(=O)NC[C@@H]3CCN(CCNc4nccnc4C)C[C@H]3O)c1)OCCCO2 [compound 95]	36.3 nM
CC(C)OCCCN1CC[C@@H](CNC(=O)c2cc(N)c(Cl)c3c2OCCCO3)[C@H](O)C1 [compound 96]	6.17 nM
CNc1cc2c(c(C(=O)NC[C@@H]3CCN(CCCCO)C[C@H]3O)c1)OCCO2 [compound 97]	15.8 nM
Nc1cc2c(c(C(=O)NC[C@@H]3CCN(CCCCO)C[C@H]3O)c1)OCCO2 [compound 98]	14.8 nM
CS(=O)(=O)NCCN1CC[C@@H](CNC(=O)c2cc(N)cc3c2OCCCO3)[C@H](O)C1 [compound 99]	72.4 nM
CNc1cc(C(=O)NC[C@@H]2CCN(CCCO)C[C@H]2O)c2c(c1Cl)OCCO2 [compound 100]	16.6 nM
CNc1cc2c(c(C(=O)NC[C@@H]3CCN(CCCOC(C)C)C[C@H]3O)c1)OCCCO2 [compound 101]	50.1 nM
CNc1cc2c(c(C(=O)NC[C@@H]3CCN(CCNS(C)(=O)=O)C[C@H]3O)c1)OCCCO2 [compound 102]	120 nM
CNc1cc2c(c(C(=O)NC[C@@H]3CCN(CCNS(C)(=O)=O)C[C@H]3O)c1)OCCO2 [compound 103]	22.9 nM
CNCCCCN1CC[C@@H](CNC(=O)c2cc(N)cc3c2OCCO3)[C@H](O)C1 [compound 104]	33.9 nM
CNc1cc(C(=O)NC[C@@H]2CCNC[C@H]2O)c2c(c1Cl)OCCO2 [compound 105]	437 nM
CNCCCCN1CC[C@@H](CNC(=O)c2cc(N)cc3c2OCCCO3)[C@H](O)C1 [compound 106]	363 nM
Nc1cc2c(c(C(=O)NC[C@@H]3CCN(CCC4OCCO4)C[C@H]3O)c1)OCCO2 [compound 108]	25.7 nM
COCCCN1CC[C@@H](CNC(=O)c2cc(N)cc3c2OCCO3)[C@H](O)C1 [compound 109]	36.3 nM
CCCCN1CC[C@@H](CNC(=O)c2cc(N)cc3c2OCCCO3)[C@H](O)C1 [compound 110]	19.1 nM

Compound	IC50
COCCCN1CC[C@@H](CNC(=O)c2cc(N)cc3c2OCCCO3)[C@H](O)C1 [compound 111]	20 nM
Nc1cc2c(c(C(=O)NC[C@@H]3CCN(CCCO)C[C@H]3O)c1)OCCCO2 [compound 112]	13.2 nM
CCCCN1CC[C@@H](CNC(=O)c2cc(NC)cc3c2OCCCO3)[C@H](O)C1 [compound 114]	8.32 nM
CNc1cc2c(c(C(=O)NC[C@@H]3CCN(CCCOC)C[C@H]3O)c1)OCCO2 [compound 115]	16.2 nM
CCCCN1CC[C@@H](CNC(=O)c2cc(NC)cc3c2OCCO3)[C@H](O)C1 [compound 116]	16.2 nM
Nc1cc2c(c(C(=O)NC[C@@H]3CCN(CCCO)C[C@H]3O)c1)OCCO2 [compound 117]	1.55 nM
Nc1cc2c(c(C(=O)NC[C@@H]3CCN(CCC4OCCO4)C[C@H]3O)c1)OCCCO2 [compound 118]	60.3 nM
CCCCN1CC[C@@H](CNC(=O)c2cc(COC)cc3c2OCCCO3)[C@H](O)C1 [compound 119]	8.91 nM
N#CCc1cc2c(c(C(=O)NC[C@@H]3CCN(CCCO)C[C@H]3O)c1)OCCCO2 [compound 120]	43.7 nM
N#CCc1cc2c(c(C(=O)NC[C@@H]3CCNC[C@H]3O)c1)OCCCO2 [compound 121]	708 nM
COCc1cc2c(c(C(=O)NC[C@@H]3CCN(CCCO)C[C@H]3O)c1)OCCCO2 [compound 122]	32.4 nM
N#CCc1cc2c(c(C(=O)NC[C@@H]3CCN(CCC4OCCO4)C[C@H]3O)c1)OCCCO2 [compound 123]	43.7 nM
COCCCN1CC[C@@H](CNC(=O)c2cc(COC)cc3c2OCCCO3)[C@H](O)C1 [compound 124]	26.9 nM
COCc1cc2c(c(C(=O)NC[C@@H]3CCN(CCC4OCCO4)C[C@H]3O)c1)OCCCO2 [compound 126]	18.2 nM
N#CCc1cc2c(c(C(=O)NC[C@@H]3CCN(CC4CCCO4)C[C@H]3O)c1)OCCCO2 (some centres unmarked) [compound 127]	17 nM
COc1cc2c(c(C(=O)NC[C@@H]3CCN(CCCC#N)C[C@H]3O)c1)OCCCO2 [compound 128]	16.6 nM
CNc1cc(C(=O)NC[C@@H]2CCN(CC3CCCO3)C[C@H]2O)c2c(c1Cl)OCCO2 (some centres unmarked) [compound 129]	16.2 nM
CNc1cc(C(=O)NC[C@@H]2CCN(CCCC#N)C[C@H]2O)c2c(c1Cl)OCCO2 [compound 130]	55 nM
CCCNc1cc2c(c(C(=O)NC[C@@H]3CCN(CCCC#N)C[C@H]3O)c1)OCCCO2 [compound 131]	135 nM
CS(=O)(=O)NCCN1CC[C@@H](CNC(=O)c2cc(N)cc3c2OCCO3)[C@H](O)C1 [compound 132]	91.2 nM
Nc1cc(C(=O)NC[C@@H]2CCNC[C@H]2O)c2c(c1Br)OCCO2 [compound 133]	537 nM
CCCCN1CC[C@@H](CNC(=O)c2cc(NCCC)cc3c2OCCCO3)[C@H](O)C1 [compound 134]	95.5 nM
CCCNc1cc2c(c(C(=O)NC[C@@H]3CCN(CCC4OCCO4)C[C@H]3O)c1)OCCCO2 [compound 135]	93.3 nM
CNc1cc2c(c(C(=O)NC[C@@H]3CCN(CCCCO)C[C@H]3O)c1)OCCCO2 [compound 136]	81.3 nM

Compound	IC50
Nc1cc(C(=O)NC[C@@H]2CCN(CC3CCCO3)C[C@H]2O)c2c(c1Br)OCCO2 (some centres unmarked) [compound 137]	27.5 nM
N#CCCCCN1CC[C@@H](CNC(=O)c2cc(N)c(Br)c3c2OCCO3)[C@H](O)C1 [compound 138]	81.3 nM
COCCCCN1CC[C@@H](CNC(=O)c2cc(N)c(Br)c3c2OCCO3)[C@H](O)C1 [compound 139]	39.8 nM
Nc1cc(C(=O)NC[C@@H]2CCN(CCCO)C[C@H]2O)c2c(c1Br)OCCO2 [compound 140]	93.3 nM
Nc1cc(C(=O)NC[C@@H]2CCN(CCC3OCCO3)C[C@H]2O)c2c(c1Br)OCCO2 [compound 141]	43.7 nM
Nc1cc(C(=O)NC[C@@H]2CCNC[C@H]2O)c2c(c1Br)OCCCO2 [compound 142]	1150 nM
CCCCNc1cc2c(c(C(=O)NC[C@@H]3CCN(CCCC)C[C@H]3O)c1)OCCCO2 [compound 143]	61.7 nM
CCCCNc1cc2c(c(C(=O)NC[C@@H]3CCN(CCC4OCCO4)C[C@H]3O)c1)OCCCO2 [compound 144]	112 nM
N#CCCCN1CC[C@@H](CNC(=O)c2cc(N)c(Br)c3c2OCCCO3)[C@H](O)C1 [compound 145]	63.1 nM
Nc1cc(C(=O)NC[C@@H]2CCN(CCC3OCCO3)C[C@H]2O)c2c(c1Br)OCCCO2 [compound 146]	34.7 nM
Nc1cc(C(=O)NC[C@@H]2CCN(CCCO)C[C@H]2O)c2c(c1Br)OCCCO2 [compound 147]	43.7 nM
CCCNc1cc2c(c(C(=O)NC[C@@H]3CCN(CCCOC)C[C@H]3O)c1)OCCCO2 [compound 148]	100 nM
CCCNc1cc2c(c(C(=O)NC[C@@H]3CCNC[C@H]3O)c1)OCCCO2 [compound 149]	3550 nM
CCCCNc1cc2c(c(C(=O)NC[C@@H]3CCN(CCCC#N)C[C@H]3O)c1)OCCCO2 [compound 150]	120 nM
CCCNc1cc2c(c(C(=O)NC[C@@H]3CCN(CCCO)C[C@H]3O)c1)OCCCO2 [compound 151]	89.1 nM
Nc1cc(C(=O)NC[C@@H]2CCN(CC3CCCO3)C[C@H]2O)c2c(c1Br)OCCCO2 (some centres unmarked) [compound 152]	24 nM
CCCCN1CC[C@@H](CNC(=O)c2cc(N)c(Br)c3c2OCCO3)[C@H](O)C1 [compound 153]	13.8 nM
CCCCNc1cc2c(c(C(=O)NC[C@@H]3CCNC[C@H]3O)c1)OCCCO2 [compound 154]	3160 nM
COCCCN1CC[C@@H](CNC(=O)c2cc(N)c(Br)c3c2OCCCO3)[C@H](O)C1 [compound 155]	55 nM
CCCCNc1cc2c(c(C(=O)NC[C@@H]3CCN(CCCO)C[C@H]3O)c1)OCCCO2 [compound 156]	46.8 nM
CCCCNc1cc2c(c(C(=O)NC[C@@H]3CCN(CCCOC)C[C@H]3O)c1)OCCCO2 [compound 157]	81.3 nM
N#CCCCN1CC[C@@H](CNC(=O)c2cc(C#N)cc3c2OCCCO3)[C@H](O)C1 [compound 160]	20 nM
CCCCN1CC[C@@H](CNC(=O)c2cc(NCC)cc3c2OCCCO3)[C@H](O)C1 [compound 161]	85.1 nM

Reference: patent US7638535B2, “4-(aminomethyl)-piperidine benzamides as 5HT4-antagonists” (Janssen Pharmaceutica N.V., priority 2003, dated 2009)
